Reference: patent publication US20240423995A1, “C-KIT INHIBITORS AND USES FOR TREATING AND PREVENTING INFLAMMATORY CONDITIONS” (GEORGETOWN UNIVERSITY, priority 2023, published 2024)

What was measured:
[1] = tested on: mast cells (spleen); assay: MC maturation in the spleen of transgenic APP mice by flow cytometry; format: in vivo; details: 20 and 40 mg/kg intraperitoneal, six weeks, vs DMSO
Procedure: The studies in this example compared the number of immature MCs to the number of mature MCs in the spleen.
12-month-old transgenic APP mice were injected intraperitoneally with 20 mg/kg BK40196, 40 mg/kg BK40196, or DMSO for six weeks before having spleens collected for analysis. Spleen samples were then treated with the three flow-conjugated antibodies and analyzed for maturation of mast cell progenitors to mature mast cells, as described in Example 5. Differences were compared using an unpaired Student's t-test.

[2] = tested on: peripheral mast cells; assay: Mature peripheral mast cells in blood of wild-type C57BL/6 mice by flow cytometry; format: in vivo; details: 50 mg/kg per day intraperitoneal for five days, p=0.06
Procedure: (§1) Wild-type C57BL/6 mice were dosed with BK40197 via intraperitoneal injection at 50 mg/kg (maximum tolerated dose) per day for five days before blood samples were taken and peripheral mast cells were isolated via flow cytometry. Cell gating was performed using antibodies against specific epitopes for cells: CD45 antibody for leukocytes, FceR1 antibody for mature mast cells, and CD117 antibody for immature and mature mast cells.

[3] = Maximum tolerated dose in wild-type C57BL/6 mice; details: mouse, in vivo, ip, intraperitoneal injection, per day
Procedure: as §1

SMILES | total number of mature MCs (CD117+/FceR1+) in the spleen ([1]; dose-dependent) | total number of mature MCs (FceR1+) in the spleen ([1]; dose-dependent) | ratio of immature MCs (CD117 only) to mature MCs (CD117 and FceR1) in the spleen [1] | reduction of gating for mature MCs (CD117+/FceR1+) compared to DMSO [2] [%] | MTD at 5 days [3] [mg/kg]
Cc1cccc(-c2cc3nccc(Nc4cccc(O)c4)c3s2)c1 [BK40196] | significantly reduced | significantly reduced | increased | – | –
Cc1cccc(-c2cc3nccc(N4CCOCC4)c3s2)c1 [BK40197] | – | – | – | 48 | 50
